By IC50 is commonly meant the concentration that inhibits the measured activity by half. Read a low IC50 as greater potency. As a reminder, the Ki is a dissociation constant, usually derived from enzyme kinetics or from competition with a known ligand. A lower Ki goes with higher affinity.

Each structure is given as a SMILES string.

T1 sequence (P29274 whole entry): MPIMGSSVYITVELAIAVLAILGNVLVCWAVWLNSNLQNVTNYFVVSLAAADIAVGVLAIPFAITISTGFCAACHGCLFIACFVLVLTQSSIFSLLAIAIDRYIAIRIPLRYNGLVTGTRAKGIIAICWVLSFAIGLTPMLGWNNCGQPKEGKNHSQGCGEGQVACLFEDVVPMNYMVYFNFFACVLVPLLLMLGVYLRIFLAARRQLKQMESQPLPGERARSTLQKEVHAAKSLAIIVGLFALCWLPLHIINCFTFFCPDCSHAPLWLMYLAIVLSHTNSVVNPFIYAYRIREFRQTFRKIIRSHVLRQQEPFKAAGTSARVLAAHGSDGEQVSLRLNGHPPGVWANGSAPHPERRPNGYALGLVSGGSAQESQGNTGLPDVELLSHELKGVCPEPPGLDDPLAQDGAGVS
human adenosine A1 receptor, sequence (P30542 whole entry): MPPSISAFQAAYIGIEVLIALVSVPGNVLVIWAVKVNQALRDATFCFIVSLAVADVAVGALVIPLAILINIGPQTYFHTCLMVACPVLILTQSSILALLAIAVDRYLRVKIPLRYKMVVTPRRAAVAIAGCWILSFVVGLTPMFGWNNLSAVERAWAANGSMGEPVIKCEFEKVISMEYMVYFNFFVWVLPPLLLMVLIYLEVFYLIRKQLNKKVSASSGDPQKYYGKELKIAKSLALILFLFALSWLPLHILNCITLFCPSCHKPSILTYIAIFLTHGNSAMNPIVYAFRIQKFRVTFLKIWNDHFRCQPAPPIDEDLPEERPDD

One test deals with T1, human adenosine A2a receptor (Homo sapiens (Human), UniProt P29274). As to the kind of experiment: Inhibition of NECA-induced cAMP accumulation in HEK 293 cells. Type of test: cell-based. To be noted: HEK 293 cells expressing human A2a; 100 nmol/l NECA; mean of four experiments. The procedure:
The compounds of the present invention were tested to assess their capacity to inhibit cAMP accumulation induced by the A2A agonist 5′-N-ethylcarboxamidoadenosine (NECA).
cAMP quantitative determination was performed with an enzyme immunoassay system (cat. RPN2255, Amersham Biosciences) according to manufacturer's instructions. HEK 293 cells, stably expressing the human adenosine A2a receptor gene (PerkinElmer, Boston, Mass., USA, cat. RBHA2AC), were grown in Falcon flasks in DMEM (Cambrex, Verviers, Belgium) supplemented with 10% FBS (Cambrex), 1 mmol/l sodium pyruvate (Sigma-Aldrich, St. Louis, Mo., USA), and 0.4 mg/ml G418 (Sigma-Aldrich) at 37° C. in a 5% CO2 atmosphere. Cells were plated on 96-well dishes at a concentration of 10^3 cells/well 48 hours before test compound exposure. Before cell stimulation with the compounds, cells were treated for 10 min at 37° C. with 0.5 mmol/l of the phosphodiesterase inhibitor Ro 20-1724 (Sigma-Aldrich) and with 2 U/ml of adenosine deaminase (ADA, Sigma-Aldrich). Medium was then changed with fresh medium containing scalar concentrations of test compounds (10^−10-10^−4 mol/l) at 37° C. and, after 10 min, 100 nmol/l NECA was added. cAMP was extracted 20 min after and quantified.
Data were analyzed by nonlinear regression analysis with GraphPad PRISM commercial software. Test compound concentrations causing a half maximal inhibition of control values (IC50 calculated by GraphPad Prism software) was reported (mean±SEM of four independent experiments).
In general terms: Cyclic AMP is a second messenger, typically raised through Gs and lowered through Gi signalling.
Turning to `CC(O)CCc1nc(N)c2nc(-n3nccn3)n(C)c2n1` (stereo not shown) [Example 2, 4-(6-Amino-9-methyl-8[1,2,3]triazol-2-yl-9H-purin-2-yl)butan-2-ol], the midpoint of inhibition, the IC50, lay at 450 nM.
With `CCCC(=O)c1nc(N)c2nc(-n3nccn3)n(C)c2n1` [Example 6, 1-(6-Amino-9-methyl-8-[1,2,3]triazol-2-yl-9H-purin-2-yl)-butan-1-one], the IC50 was 2920 nM.
`C[C@H](O)CCc1nc(N)c2nc(-n3nccn3)n(C)c2n1` [Example 3, (S)-4-(6-Amino-9-methyl-8-[1,2,3]triazol-2-yl-9H-purin-2-yl)butan-2-ol] gave an IC50 of 260 nM.
On to `CCCC(O)c1nc(N)c2nc(-n3nccn3)n(C)c2n1` (stereo not shown) [Example 5, 1-(6-Amino-9-methyl-8-[1,2,3]triazol-2-yl-9H-purin-2-yl)butan-1-ol], for which the midpoint of inhibition, the IC50, lay at 2320 nM.

For the next test, the system named is battery of 51 different receptors. As to the kind of experiment: Selectivity profile: affinity toward a battery of 51 different receptors. Format: binding, human. To be noted: tested at 10 μM. From the text: The majority of the 51 assays were human recombinant receptors of the following types: adenosine, adrenergic, cannabinoid, dopamine, GABA, histamine, melatonin, muscarinic, prostanoid and serotonin receptors belonging to non peptide receptors family; angiotensin-II, bradychinin, chemokines, cholecistokinin, endothelin, galanin, melacortin, neurokinin, neuropeptide Y, neurotensin, opioid and opioid like, somatostatin, vasoactive intestinal peptide and vasopressin receptors belonging to peptide receptors family; Ca^2+ channel, K^+ channel and Na^+ channel belonging to the ion channel family and dopamine, norepinephrine and serotonin belonging to the amine transporters receptors family.” These three compounds were tested at a concentration of 10 μM.
For `CC(O)CCc1nc(N)c2nc(-n3nccn3)n(C)c2n1` (stereo not shown) [Example 2, 4-(6-Amino-9-methyl-8[1,2,3]triazol-2-yl-9H-purin-2-yl)butan-2-ol], the “affinity toward 51 receptors” value is reported as “none of them demonstrated any substantial affinity”.
On the same count and under the same terms, the value for `CCCC(O)c1nc(N)c2nc(-n3nccn3)n(C)c2n1` (stereo not shown) [Example 5, 1-(6-Amino-9-methyl-8-[1,2,3]triazol-2-yl-9H-purin-2-yl)butan-1-ol] was “none of them demonstrated any substantial affinity”.

A further test has as its system 6-OHDA lesioned rats. As to the kind of experiment: Enhancement of L-DOPA antiparkinsonian activity, 6-OHDA lesioned rats. Type of test: in vivo, Rats (Sprague Dawley). To be noted: 10, 20, 40 mg/kg with threshold dose of L-Dopa (6 mg benserazide + 3 mg L-DOPA); 6-OHDA rats. The procedure:
Rats (Sprague Dawley) under chloral hydrate (400 mg/kg) anaesthesia were placed in a Kopf stereotaxic apparatus. Through a stainless steel cannula, 6-OHDA was injected at a rate of 1 μl/min into the left medial forebrain bundle at coordinates A=−2.2, L=+1.5 and V=−7.8, according to the Pellegrino atlas. All rats, including shams, were treated with desipramine (10 mg/kg) 10 min before anaesthesia to prevent damage to noradrenergic neurons.
Two weeks after the 6-OHDA injection, all animals were tested for their contra lateral rotation capacity in response to 30 mg/kg i.p. benserazide followed by 50 mg/kg i.p. of L-Dopa 30 min later. Rats not showing at least 200 contra lateral rotations within the 3 h testing period were eliminated from the study. One week after this test, selected animals were randomized to be enrolled in three studies. Each study involved seven groups of eight animals.
Tested compounds (ST3829, ST3932 and ST4206) were dissolved in a solution containing 10% sucrose and 0.3% Tween 80 in sterile water in order to obtain three different dosage forms (i.e., 10, 20 and 40 mg/kg).
In groups 5, 6 and 7 benserazide was administered first, followed by the tested compound 25 min after and finally by L-DOPA 5 min later.
`CC(O)CCc1nc(N)c2nc(-n3nccn3)n(C)c2n1` (stereo not shown) [Example 2, 4-(6-Amino-9-methyl-8[1,2,3]triazol-2-yl-9H-purin-2-yl)butan-2-ol]: the “contralateral turning behaviour induced by L-Dopa” value was “increased the contralateral turning behaviour induced by L-Dopa”.
For the molecule `CCCC(O)c1nc(N)c2nc(-n3nccn3)n(C)c2n1` (stereo not shown) [Example 5, 1-(6-Amino-9-methyl-8-[1,2,3]triazol-2-yl-9H-purin-2-yl)butan-1-ol], the “contralateral turning behaviour induced by L-Dopa” value is on record as “efficacy of ST3829 at increasing the number of contralateral rotation”.

In another test the test system is haloperidol-induced catalepsy in CD1 mice. In words: Haloperidol-induced catalepsy mice model. Format: in vivo. The note with it: oral 10, 20 or 40 mg/kg, haloperidol 2 mg/kg i.p., AUC of catalepsy time over 7 h. The procedure:
Haloperidol (2 mg/kg) was injected i.p. to CD1 mice 2.5 h before oral administration of ST3932 or ST4206. The latter were administered at doses of 10, 20 or 40 mg/kg.
Then, each CD1 mouse was gently placed by its forepaws on a wire at a height of 4.5 cm. Catalepsy was measured as the time (expressed in seconds) necessary for the animal to step down with at least one forepaw, with an end point of 60 seconds, time after which the mouse was gently removed from the wire. Then, catalepsy was scored every 60 min for seven h.
All data were expressed both as individual and mean values, plus or minus standard error (Mean±SEM) of catalepsy time in seconds. Statistical analysis was performed using sigma stat program. After calculation of AUC throughout 7 hours, the one-way ANOVA followed by Dunnett's test were used.
With `CC(O)CCc1nc(N)c2nc(-n3nccn3)n(C)c2n1` (stereo not shown) [Example 2, 4-(6-Amino-9-methyl-8[1,2,3]triazol-2-yl-9H-purin-2-yl)butan-2-ol], the “antagonism of haloperidol-induced catalepsy” value is given as “significantly antagonized haloperidol-induced catalepsy in a dose-dependent manner”.

For the next test, the target named is T1, human adenosine A2a receptor. In words: A2a receptor competition binding assay ([3H]ZM241385). The note with it: membranes of HEK293 cells expressing human A2a; [3H]ZM241385 2 nmol/l; Ki from IC50 by Cheng and Prusoff. The protocol:
HEK293 cells, stably expressing the human adenosine A2a receptor gene (PerkinElmer, Boston, Mass., USA, cat. RBHA2AC), were grown in Falcon flasks in DMEM (Cambrex, Verviers, Belgium) supplemented with 10% FBS (Cambrex), 1 mmol/l sodium pyruvate (Sigma-Aldrich, Saint Louis, Mo., USA), 0.4 mg/ml G418 (Sigma-Aldrich) at 37° C. in a 5% CO2 atmosphere. For radioligand binding experiments, the cells were collected at 80% of confluence, in 5 mmol/l Tris-HCl (Sigma-Aldrich), pH 7.4, containing 2 mmol/l EDTA, counted, washed in PBS (Cambrex), resuspended in incubation buffer A containing 50 mmol/l Tris-HCl, pH 7.4, 10 mmol/l MgCl2 (Sigma-Aldrich) and homogenized using an Ultra Turrax T25. The membranes were centrifuged and homogenized once again and the final pellet was stored at −80° C. until use. Prior to the competition binding assay, the pellet was resuspended in buffer A at the desired protein concentration and membrane suspension was incubated with 2 U/ml adenosine deaminase (ADA, Sigma-Aldrich) for 30 min at 37° C. to remove endogenous adenosine.
The protein concentration of membrane suspension was determined using the Bradford method (Pierce, Rockford, Ill., USA) with bovine albumin as standard. Competition binding experiments were performed by incubating membranes (5-10 μg of protein/sample) with a single concentration of the A2a antagonist [^3H]ZM241385 (Biotrend, Cologne, Germany) (2 nmol/l), in the presence of various concentrations (ranging from 10^−5 to 10^−11 mol/l) of test and reference compounds in 96-well filter plates (MultiScreen system, cat. MAFBN0B10, Millipore, Billerica, Mass., USA) for one h at 4° C. in a total volume of 200 μl/well of appropriate buffer (50 mmol/l Tris-HCl, pH 7.4, 10 mmol/l MgCl2). Nonspecific binding was determined in the presence of 10 μmol/l cold ZM241385 (Tocris, Ellisville, Mo., USA). At the end of incubation, bound and free radioligands were separated by filtering the 96-well filter plates using a Millipore filtration apparatus (MultiScreenHTS vacuum manifold). Filter plates were then washed several times with ice-cold buffer (50 mmol/l Tris-HCl, pH 7.4) and filter-bound radioactivity measured using a MicroBeta counter (PerkinElmer) after addition of 30 μl/well of OptiPhase SuperMix scintillation cocktail (PerkinElmer). Four experiments were performed in triplicate by JANUS® automated workstation (Perkin Elmer).
Data were analyzed by nonlinear regression analysis with GraphPad PRISM commercial software and expressed as IC50, defined as the concentration of compounds that inhibits 50% of [^3H]ZM241385 binding. Inhibitory binding constant (Ki) values were calculated from IC50 values according to the Cheng and Prusoff equation Ki=IC50/(1+[C]/Kd), where [C] is the concentration of the radioligand and Kd its dissociation constant.
In the case of `CC(O)CCc1nc(N)c2nc(-n3nccn3)n(C)c2n1` (stereo not shown) [Example 2, 4-(6-Amino-9-methyl-8[1,2,3]triazol-2-yl-9H-purin-2-yl)butan-2-ol], the Ki was 8 nM.
With `CCCC(=O)c1nc(N)c2nc(-n3nccn3)n(C)c2n1` [Example 6, 1-(6-Amino-9-methyl-8-[1,2,3]triazol-2-yl-9H-purin-2-yl)-butan-1-one], the inhibition constant Ki is 19 nM.
`C[C@H](O)CCc1nc(N)c2nc(-n3nccn3)n(C)c2n1` [Example 3, (S)-4-(6-Amino-9-methyl-8-[1,2,3]triazol-2-yl-9H-purin-2-yl)butan-2-ol] displayed a Ki of 19 nM. This counts as double-digit nanomolar.
As to `CCCC(O)c1nc(N)c2nc(-n3nccn3)n(C)c2n1` (stereo not shown) [Example 5, 1-(6-Amino-9-methyl-8-[1,2,3]triazol-2-yl-9H-purin-2-yl)butan-1-ol], the Ki stood at 22 nM.

A further test concerns the target human adenosine A1 receptor (Homo sapiens (Human), UniProt P30542). In words: A1 receptor competition binding assay ([3H]DPCPX). To be noted: membranes of CHO-K1 cells expressing human A1; [3H]DPCPX 1.7 nmol/l; Ki from IC50 by Cheng and Prusoff. The procedure:
Competition binding experiments have been performed incubating membranes from CHO-K1 cells stably transfected with the human adenosine A1 receptor (cat. ES-010-M400UA, Perkin Elmer, Boston, Mass., USA) (5-10 μg of protein/sample) with a single concentration of [3H]DPCPX (1.7 nmol/l) (Perkin Elmer), in the presence of various concentrations (ranging from 10^−5 to 10^−10 M) of cold DPCPX, ST4206 and ST4208 in 96-well filter plates (MultiScreen system, cat #MAFBN0B10, Millipore, Billerica, Mass., USA) for 60 min at 25° C. in a total volume of 200 μL/well of 25 mmol/l Hepes, 5 mmol/L MgCl2, 1 mmol/l CaCl2, 100 mmol/L NaCl, pH 7.4 (all from Sigma-Aldrich). Non-specific binding has been determined in the presence of 250 μmol/l of cold DPCPX (8-cyclopentyl-1,3-dipropylxanthine, Sigma-Aldrich). At the end of incubation, bound and free radioligands have been separated by filtering the 96-well filter plates using a Millipore filtration apparatus (MultiscreenHTS vacuum manifold). Filter plates have been washed several times with ice-cold buffer (50 mmol/l Tris-HCl, pH 7.4) and filter-bound radioactivity measured using a MicroBeta counter (PerkinElmer) after addition of 30 μL/well of OptiPhase SuperMix scintillation cocktail (PerkinElmer).
Data have been analyzed using nonlinear regression with GraphPad PRISM commercial software. Data will be expressed as test compound concentration causing a half maximal inhibition of control values (IC50). Inhibitory binding constant (Ki) values will be calculated from IC50 values, according to the Cheng and Prusoff equation K1=IC50/(1+[C]/Kd), where [C] is the concentration of the radioligand and Kd its dissociation constant.
Regarding `CC(O)CCc1nc(N)c2nc(-n3nccn3)n(C)c2n1` (stereo not shown) [Example 2, 4-(6-Amino-9-methyl-8[1,2,3]triazol-2-yl-9H-purin-2-yl)butan-2-ol], the inhibitory constant (Ki) is 27 nM. In other words, the double-digit nanomolar range.
On the same count and under the same terms, the value for `CCCC(=O)c1nc(N)c2nc(-n3nccn3)n(C)c2n1` [Example 6, 1-(6-Amino-9-methyl-8-[1,2,3]triazol-2-yl-9H-purin-2-yl)-butan-1-one] was 216 nM; that for `CCCC(O)c1nc(N)c2nc(-n3nccn3)n(C)c2n1` (stereo not shown) [Example 5, 1-(6-Amino-9-methyl-8-[1,2,3]triazol-2-yl-9H-purin-2-yl)butan-1-ol] was 120 nM.

These data come from patent US9133197B2, “Oxidated derivatives of triazolylpurines useful as ligands of the adenosine A2A receptor and their use as medicaments” (SIGMA-TAU INDUSTRIE FARMACEUTICHE RIUNITE S.P.A., priority 2009, dated 2015).
